Molecular target: Voltage-dependent L-type calcium channel subunit alpha-1C (Cavia porcellus, UniProt O35505)
Test: Inhibition of L-type calcium channel in Cavia porcellus (guinea pig) ileal SMC assessed as inhibition of 80 mM KCl-induced current

Chain of Voltage-dependent L-type calcium channel subunit alpha-1C (O35505 whole entry): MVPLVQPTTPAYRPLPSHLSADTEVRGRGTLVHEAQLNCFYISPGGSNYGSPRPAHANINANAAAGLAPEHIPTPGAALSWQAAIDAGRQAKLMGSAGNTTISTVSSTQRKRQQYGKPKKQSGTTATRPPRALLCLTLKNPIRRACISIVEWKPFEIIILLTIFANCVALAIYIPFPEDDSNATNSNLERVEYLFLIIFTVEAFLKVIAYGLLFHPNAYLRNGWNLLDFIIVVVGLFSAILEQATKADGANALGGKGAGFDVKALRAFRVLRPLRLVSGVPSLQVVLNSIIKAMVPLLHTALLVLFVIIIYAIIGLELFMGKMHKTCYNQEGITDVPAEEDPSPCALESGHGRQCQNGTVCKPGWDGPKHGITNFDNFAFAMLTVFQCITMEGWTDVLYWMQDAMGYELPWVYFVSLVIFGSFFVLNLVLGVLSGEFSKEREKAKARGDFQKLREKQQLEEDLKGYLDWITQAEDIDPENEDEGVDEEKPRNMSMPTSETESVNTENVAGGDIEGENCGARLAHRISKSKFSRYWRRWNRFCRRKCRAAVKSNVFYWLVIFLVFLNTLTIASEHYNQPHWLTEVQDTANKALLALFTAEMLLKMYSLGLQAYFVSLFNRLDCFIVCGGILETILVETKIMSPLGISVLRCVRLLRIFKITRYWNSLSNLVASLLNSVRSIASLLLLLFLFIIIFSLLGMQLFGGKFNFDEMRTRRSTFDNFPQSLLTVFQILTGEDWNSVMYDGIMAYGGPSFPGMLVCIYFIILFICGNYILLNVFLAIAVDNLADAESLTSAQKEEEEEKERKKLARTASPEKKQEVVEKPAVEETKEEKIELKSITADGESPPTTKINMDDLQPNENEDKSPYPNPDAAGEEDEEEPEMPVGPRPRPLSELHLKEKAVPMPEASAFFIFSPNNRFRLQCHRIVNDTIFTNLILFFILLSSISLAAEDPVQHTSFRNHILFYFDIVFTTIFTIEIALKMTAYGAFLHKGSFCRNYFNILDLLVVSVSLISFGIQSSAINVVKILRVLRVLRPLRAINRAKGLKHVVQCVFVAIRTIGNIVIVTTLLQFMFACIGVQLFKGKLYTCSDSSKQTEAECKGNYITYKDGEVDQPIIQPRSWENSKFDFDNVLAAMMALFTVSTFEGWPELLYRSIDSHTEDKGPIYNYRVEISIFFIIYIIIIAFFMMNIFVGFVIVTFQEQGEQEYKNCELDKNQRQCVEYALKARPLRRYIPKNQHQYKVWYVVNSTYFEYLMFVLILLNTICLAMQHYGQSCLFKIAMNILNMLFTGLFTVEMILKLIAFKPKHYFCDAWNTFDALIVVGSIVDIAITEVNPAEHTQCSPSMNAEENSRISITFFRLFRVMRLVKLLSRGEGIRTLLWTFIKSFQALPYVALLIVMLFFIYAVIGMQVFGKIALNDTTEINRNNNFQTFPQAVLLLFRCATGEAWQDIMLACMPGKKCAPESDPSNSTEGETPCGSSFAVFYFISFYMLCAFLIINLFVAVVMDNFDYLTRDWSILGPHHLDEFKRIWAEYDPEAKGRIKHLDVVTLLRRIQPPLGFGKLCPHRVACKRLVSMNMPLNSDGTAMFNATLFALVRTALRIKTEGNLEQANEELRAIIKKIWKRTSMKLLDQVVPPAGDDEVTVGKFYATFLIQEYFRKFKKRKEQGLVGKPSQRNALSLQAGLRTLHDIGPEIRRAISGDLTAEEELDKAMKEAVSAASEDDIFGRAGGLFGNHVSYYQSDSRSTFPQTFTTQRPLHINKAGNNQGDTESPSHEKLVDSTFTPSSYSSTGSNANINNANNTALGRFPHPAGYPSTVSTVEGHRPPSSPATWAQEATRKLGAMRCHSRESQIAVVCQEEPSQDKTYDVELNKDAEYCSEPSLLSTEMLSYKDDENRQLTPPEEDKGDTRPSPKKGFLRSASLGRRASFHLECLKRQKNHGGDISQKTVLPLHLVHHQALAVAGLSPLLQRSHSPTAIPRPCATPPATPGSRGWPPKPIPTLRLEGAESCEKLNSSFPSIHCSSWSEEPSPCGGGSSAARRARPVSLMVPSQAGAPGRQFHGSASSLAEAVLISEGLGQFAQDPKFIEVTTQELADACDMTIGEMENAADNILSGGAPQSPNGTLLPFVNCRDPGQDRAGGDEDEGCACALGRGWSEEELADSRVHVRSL

| SMILES | IC50 |
| --- | --- |
| COC(=O)C1=C(C)NC(C)=C(C(=O)OCCc2ccccc2)C1c1[nH]c(C)nc1Cl (stereo not drawn) | 79.4 nM |
| CC1=C(C(=O)OC2CCCC2)C(c2[nH]c(C)nc2Cl)C(C(=O)OC2CCCC2)=C(C)N1 | 97.7 nM |
| CC1=C(C(=O)OCc2ccccc2)C(c2nc(C)[nH]c2Cl)C(C(=O)OCc2ccccc2)=C(C)N1 | 41.7 nM |
| CC1=C(C(=O)OCC2CCCCC2)C(c2[nH]c(C)nc2Cl)C(C(=O)OCC2CCCCC2)=C(C)N1 | 631 nM |
| CC1=C(C(=O)OCCCc2ccccc2)C(c2nc(C)[nH]c2Cl)C(C(=O)OCCCc2ccccc2)=C(C)N1 | 1.74 nM |
| CCOC(=O)C1=C(C)NC(C)=C(C(=O)OCCc2ccccc2)C1c1[nH]c(C)nc1Cl (stereo not drawn) | 70.8 nM |
| CCCOC(=O)C1=C(C)NC(C)=C(C(=O)OCCC)C1c1[nH]c(C)nc1Cl | 63.1 nM |
| CC1=C(C(=O)OCC(C)C)C(c2[nH]c(C)nc2Cl)C(C(=O)OCC(C)C)=C(C)N1 | 95.5 nM |
| CCOC(=O)C1=C(C)NC(C)=C(C(=O)OCc2ccccc2)C1c1[nH]c(C)nc1Cl (stereo not drawn) | 91.2 nM |
| COC(=O)C1=C(C)NC(C)=C(C(=O)OCc2ccccc2)C1c1[nH]c(C)nc1Cl (stereo not drawn) | 93.3 nM |
| CC1=C(C(=O)OC2CCCCC2)C(c2[nH]c(C)nc2Cl)C(C(=O)OC2CCCCC2)=C(C)N1 | 955 nM |
| COC(=O)C1=C(C)NC(C)=C(C(=O)OCC2CCCCC2)C1c1[nH]c(C)nc1Cl (stereo not drawn) | 355 nM |
| CCOC(=O)C1=C(C)NC(C)=C(C(=O)OCC2CCCCC2)C1c1[nH]c(C)nc1Cl (stereo not drawn) | 513 nM |
| CC1=C(C(=O)OCCc2ccccc2)C(c2nc(C)[nH]c2Cl)C(C(=O)OCCc2ccccc2)=C(C)N1 | 0.182 nM |

The remaining lines, values ahead:

| IC50 | SMILES |
| --- | --- |
| 38 nM | CC1=C(C(=O)OC(C)C)C(c2[nH]c(C)nc2Cl)C(C(=O)OC(C)C)=C(C)N1 |
| 4070 nM | CC1=C(C(=O)OC(C)(C)C)C(c2[nH]c(C)nc2Cl)C(C(=O)OC(C)(C)C)=C(C)N1 |
| 437 nM | CCCOC(=O)C1=C(C)NC(C)=C(C(=O)OC)C1c1[nH]c(C)nc1Cl (stereo not drawn) |
| 1660 nM | CCOC(=O)C1=C(C)NC(C)=C(C(=O)OC(C)(C)C)C1c1[nH]c(C)nc1Cl (stereo not drawn) |
| 661 nM | CCOC(=O)C1=C(C)NC(C)=C(C(=O)OC)C1c1[nH]c(C)nc1Cl (stereo not drawn) |
| 437 nM | CCOC(=O)C1=C(C)NC(C)=C(C(=O)OCC)C1c1[nH]c(C)nc1Cl |
| 1860 nM | COC(=O)C1=C(C)NC(C)=C(C(=O)OC(C)(C)C)C1c1[nH]c(C)nc1Cl (stereo not drawn) |
| 1200 nM | COC(=O)C1=C(C)NC(C)=C(C(=O)OC)C1c1[nH]c(C)nc1Cl |
| 407 nM | CCCOC(=O)C1=C(C)NC(C)=C(C(=O)OCC)C1c1[nH]c(C)nc1Cl (stereo not drawn) |

Reference: ChEMBL document CHEMBL3046021, “Docking and QSAR studies of new 1,4-dihydropyridines containing 4(5)-chloro-2-methyl-5(4)-imidazolyl substituent” (Med Chem Res, 2012)
